This note sets out measurements from ChEMBL document CHEMBL2074435, “Quantitative analysis of breast cancer resistance protein and cellular resistance to flavopiridol in acute leukemia patients” (Clin Cancer Res, 2003).

The target of this data set is T1, Broad substrate specificity ATP-binding cassette transporter ABCG2 (Homo sapiens, UniProt Q9UNQ0).
T1 sequence (Q9UNQ0 whole entry): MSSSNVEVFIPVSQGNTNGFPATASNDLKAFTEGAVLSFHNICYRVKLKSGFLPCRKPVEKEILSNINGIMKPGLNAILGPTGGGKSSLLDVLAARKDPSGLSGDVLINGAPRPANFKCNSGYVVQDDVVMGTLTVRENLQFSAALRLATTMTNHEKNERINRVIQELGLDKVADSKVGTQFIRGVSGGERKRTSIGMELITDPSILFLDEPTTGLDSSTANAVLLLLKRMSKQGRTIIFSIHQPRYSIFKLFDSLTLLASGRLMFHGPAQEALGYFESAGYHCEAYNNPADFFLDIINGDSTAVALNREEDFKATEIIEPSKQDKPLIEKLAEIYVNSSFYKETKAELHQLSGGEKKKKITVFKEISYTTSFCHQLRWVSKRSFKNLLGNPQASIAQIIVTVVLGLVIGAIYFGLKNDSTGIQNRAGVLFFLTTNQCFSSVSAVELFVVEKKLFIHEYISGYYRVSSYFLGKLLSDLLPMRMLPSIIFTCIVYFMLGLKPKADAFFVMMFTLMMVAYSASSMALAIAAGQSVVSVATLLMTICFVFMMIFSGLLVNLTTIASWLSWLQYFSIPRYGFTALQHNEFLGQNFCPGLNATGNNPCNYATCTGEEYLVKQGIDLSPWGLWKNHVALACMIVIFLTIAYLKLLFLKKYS
The data set can be described thus: TP_TRANSPORTER: correlation hBCRPmRNA with flavopiridol induced apoptosis resistance. In kind it is functional, cell-based.

Regarding `CN1CC[C@H](c2c(O)cc(O)c3c(=O)cc(-c4ccccc4Cl)oc23)[C@H](O)C1` [ALVOCIDIB], the Activity result was “substrate []”.
